pIC50: −log10 of the molar value. Numbered stars: 1 amine (or outer) side, 2 acyl side, 3 side chain; on linkers, the order of the positions; unused ones are H or OH. Bridge positions count the residues as written; N and C are the ends. Square brackets hold non-standard residues; d marks the D form. Peptide text beside a SMILES is read from it. * marks the point of attachment. hPhe(3,5-F2-4-CF3) = N[C@@H](CCc1cc(F)c(C(F)(F)F)c(F)c1)C(=O)O; hPhe(3-Cl-4-CF3) = N[C@@H](CCc1ccc(C(F)(F)F)c(Cl)c1)C(=O)O; hPhe(3-F,4-CF3) = N[C@@H](CCc1ccc(C(F)(F)F)c(F)c1)C(=O)O; NMePhe(4-CF3) = CN[C@@H](Cc1ccc(C(F)(F)F)cc1)C(=O)O; NEtPhe(4-Me) = CCN[C@@H](Cc1ccc(C)cc1)C(=O)O; NMePhe(2-Cl) = CN[C@@H](Cc1ccccc1Cl)C(=O)O; NMedβ3hAla = C[C@H](CC(=O)[*:2])N(C)[*:1]; NMeAla(cPent) = CN[C@@H](CC1CCCC1)C(=O)O; NMeGly(cPent) = CN[C@H](C(=O)O)C1CCCC1; Pro(4,4-F2) = O=C(O)[C@@H]1CC(F)(F)CN1; NMeAla(cPr) = CN[C@@H](CC1CC1)C(=O)O; NMeGly(cBu) = CN[C@H](C(=O)O)C1CCC1; NMeCha = CN[C@@H](CC1CCCCC1)C(=O)O; Hyp = O=C(O)[C@@H]1C[C@@H](O)CN1; NMeI = CC[C@H](C)[C@H](NC)C(=O)O; NMeE = CN[C@@H](CCC(=O)O)C(=O)O; NMeD = CN[C@@H](CC(=O)O)C(=O)O; NMeL = CN[C@@H](CC(C)C)C(=O)O; NMeV = CN[C@H](C(=O)O)C(C)C; d(β3hA) = C[C@@H](N)CC(=O)O; Azetidin(1-yl) = C1CN(*)C1; NMeC = CN[C@@H](CS)C(=O)O; Pip = O=C(O)[C@@H]1CCCCN1; Morpholide = C1CN(*)CCO1; NMeA = CN[C@@H](C)C(=O)O; NMeAib = CNC(C)(C)C(=O)O; Nle = CCCC[C@H](N)C(=O)O; Piperidide = C1CCN(*)CC1; Ac5c = NC1(C(=O)O)CCCC1; Aze = O=C(O)[C@@H]1CCN1; Sar = CNCC(=O)O
Legend:
[1] = system: Human pancreatic cancer cell line AsPC-1 (G12D mutation Kras); test: AsPC-1 cell growth inhibition (AsPC-1 CGI); type: cell-based; details: read-out: AsPC-1 cell growth inhibition, 50% growth inhibitory concentration (IC50 value); 96 hours, CellTiter-Glo, values classified in ranges
[2] = target: protein-protein interaction between Kras and SOS1 (biotin-tagged human Kras loaded with GDP, His-tagged human SOS1) (Homo sapiens (Human), UniProt P01116, G12D); test: Protein-protein interaction inhibition between Kras and SOS1 (KrasG12D-SOS PPI) using AlphaScreen; type: biochemical; details: AlphaScreen; biotin-tagged human Kras loaded with GDP, His-tagged human SOS1; read-out: KRAS G12D-SOS PPI IC50;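 further: kras produced in E. coli, Ni-coupled donor beads and streptavidin acceptor beads, excitation 680 nm with emission detected at 520–620 nm via singlet oxygen transfer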

Row | Structure (SMILES) | pIC50 [1] | pIC50 [2]
1 | CC[C@H](C)[C@@H]1NC(=O)[C@H](CC(C)C)N(C)C(=O)C[C@@H](C)N(C)C(=O)[C@H](C(C)C)NC(=O)C(C)(C)N(C)C(=O)[C@H](CC(C)C)NC(=O)[C@H](CCc2ccc(C(F)(F)F)c(F)c2)NC(=O)CN(C)C(=O)[C@H](CC2CCCCC2)N(C)C(=O)CN(C)C(=O)CN(C)C1=O [Compound 967] (cyclo(I[Sar][Sar][NMeCha][Sar][hPhe(3-F,4-CF3)]L[NMeAib]V[NMedβ3hAla][NMeL])) | < 6.30 | 7.24
2 | CC[C@H](C)[C@@H]1NC(=O)[C@H](CC2CCCC2)N(C)C(=O)C[C@@H](C(=O)N2CCOCC2)N(C)C(=O)[C@H]([C@@H](C)CC)N(C)C(=O)C2(CCCC2)NC(=O)[C@@H]2CCCN2C(=O)[C@H](CCc2ccc(C(F)(F)F)c(Cl)c2)NC(=O)CN(C)C(=O)[C@H](Cc2ccc(C(F)(F)F)cc2)N(C)C(=O)[C@@H]2CCN2C(=O)[C@H](C)NC1=O [Compound 1371] ([NMeAla(cPent)]IA[Aze][NMePhe(4-CF3)][Sar][hPhe(3-Cl-4-CF3)]P[Ac5c][NMeI][NMeD]-Morpholide; lactam N-11) | ≥ 7.70 | 8.80
3 | CC[C@H](C)[C@@H]1NC(=O)[C@H](CC2CCCC2)N(C)C(=O)C[C@@H](C(=O)N2CCC2)N(C)C(=O)[C@H](C2CCCC2)N(C)C(=O)C2(CCCC2)NC(=O)[C@@H]2CCCN2C(=O)[C@H](CCc2ccc(C(F)(F)F)c(Cl)c2)NC(=O)CN(C)C(=O)[C@H](CC2CCCCC2)N(C)C(=O)[C@@H]2CCN2C(=O)[C@H](C)N(C)C1=O [Compound 1199] ([NMeAla(cPent)]I[NMeA][Aze][NMeCha][Sar][hPhe(3-Cl-4-CF3)]P[Ac5c][NMeGly(cPent)][NMeD]-{Azetidin(1-yl)}; lactam N-11) | ≥ 7.70 | 9.15
4 | CCO[C@@H]1C[C@H]2C(=O)NC3(CCCC3)C(=O)N(C)[C@@H](C3CCCC3)C(=O)N(C)[C@H](C(=O)N(C)C)CSCC(=O)N(C)[C@@H](CC(C)C)C(=O)N[C@@H]([C@@H](C)CC)C(=O)N(C)[C@@H](C)C(=O)N3CC[C@H]3C(=O)N(C)[C@@H](CC3CCCCC3)C(=O)N(C)CC(=O)N[C@@H](CCc3cc(F)c(C(F)(F)F)c(F)c3)C(=O)N2C1 [Compound 2176, (3S,9S,12S,17S,20S,23S,29R,32S,38S,40R)-20-[(2S)-butan-2-yl]-9-(cyclohexylmethyl)-32-cyclopentyl-3-[2-[3,5-difluoro-4-(trifluoromethyl)phenyl]ethyl]-40-ethoxy-N,N,7,10,17,18,24,30,33-nonamethyl-23(2-methylpropyl)-2,5,8,11,16,19,22,25,31,34,37-undecaoxospiro[27-thia-1,4,7,10,15,18,21,24,30,33,36-undecazatricyclo[36.3.0.012,15]hentetracontane-35,1′-cyclopentane]-29-carboxamide] ({CH2CO}-[NMeL]I[NMeA][Aze][NMeCha][Sar][hPhe(3,5-F2-4-CF3)][Hyp](Et)[Ac5c][NMeGly(cPent)][NMeC]-NMe2; thioether N-11) | < 6.30 | 6.92
5 | CC[C@H](C)[C@@H]1NC(=O)[C@H](C)N(C)C(=O)C[C@@H](C(=O)N(C)C)N(C)C(=O)[C@H](C(C)C)N(C)C(=O)C2(CCCC2)NC(=O)[C@H](Cc2ccccc2Cl)N(C)C(=O)[C@H](CCc2ccc(C(F)(F)F)c(Cl)c2)NC(=O)CN(C)C(=O)[C@H](CC2CCCCC2)N(C)C(=O)CN(C)C(=O)CN(C)C1=O [Compound 317] ([NMeA]I[Sar][Sar][NMeCha][Sar][hPhe(3-Cl-4-CF3)][NMePhe(2-Cl)][Ac5c][NMeV][NMeD]-NMe2; lactam N-11) | < 6.30 | 7.52
6 | CC[C@H](C)[C@@H]1NC(=O)[C@H](CC(C)C)N(C)C(=O)C[C@@H](C(=O)N2CCCCC2)N(C)C(=O)[C@H](CC2CCCC2)N(C)C(=O)C2(CCCC2)NC(=O)[C@@H]2CCCN2C(=O)[C@H](CCc2ccc(C(F)(F)F)c(Cl)c2)NC(=O)CN(C)C(=O)[C@H](CC2CCCCC2)N(C)C(=O)[C@@H]2CCN2C(=O)[C@H](C)N(C)C1=O [Compound 1820] ([NMeL]I[NMeA][Aze][NMeCha][Sar][hPhe(3-Cl-4-CF3)]P[Ac5c][NMeAla(cPent)][NMeD]-Piperidide; lactam N-11) | < 6.30 | 7.85
7 | CCCC[C@@H]1NC(=O)[C@H](CCc2ccc(C(F)(F)F)c(Cl)c2)NC(=O)CN(C)C(=O)[C@H](CC2CCCCC2)N(C)C(=O)[C@@H]2CCN2C(=O)CN(C)C(=O)[C@H]([C@@H](C)CC)NC(=O)[C@@H]2CCCCN2C(=O)C[C@@H](C(=O)N2CCCCC2)N(C)C(=O)[C@H](CC(C)C)NC(=O)C(C)(C)N(C)C1=O [Compound 760] ([Pip]I[Sar][Aze][NMeCha][Sar][hPhe(3-Cl-4-CF3)][Nle][NMeAib]L[NMeD]-Piperidide; lactam N-11) | < 6.30 | 8.28
8 | CC[C@H](C)[C@@H]1NC(=O)[C@H](CC(C)C)N(C)C(=O)C[C@@H](C(=O)N2CCCCC2)N(C)C(=O)[C@H](C(C)C)N(C)C(=O)C2(CCCC2)NC(=O)[C@@H]2CCCN2C(=O)[C@H](CCc2ccc(C(F)(F)F)c(Cl)c2)NC(=O)CN(C)C(=O)[C@H](CC2CC2)N(C)C(=O)[C@@H]2CCN2C(=O)[C@H](C)N(C)C1=O [Compound 195] ([NMeL]I[NMeA][Aze][NMeAla(cPr)][Sar][hPhe(3-Cl-4-CF3)]P[Ac5c][NMeV][NMeD]-Piperidide; lactam N-11) | < 6.30 | 8.02
9 | CC[C@H](C)[C@@H]1NC(=O)[C@H](CC(C)C)N(C)C(=O)C[C@@H](C)N(C)C(=O)[C@H]([C@@H](C)CC)N(C)C(=O)C2(CCCC2)NC(=O)[C@@H]2CC(F)(F)CN2C(=O)[C@H](CCc2ccc(C(F)(F)F)c(Cl)c2)NC(=O)CN(C)C(=O)[C@H](Cc2ccc(C(F)(F)F)cc2)N(C)C(=O)[C@@H]2CCN2C(=O)[C@H](C)N(C)C1=O [Compound 668] (cyclo([Ac5c][NMeI][NMedβ3hAla][NMeL]I[NMeA][Aze][NMePhe(4-CF3)][Sar][hPhe(3-Cl-4-CF3)][Pro(4,4-F2)])) | ≥ 7.70 | 8.72
10 | CC[C@H](C)[C@@H]1NC(=O)[C@H](CC(C)C)N(C)C(=O)C[C@@H](C(=O)N2CCCCC2)N(C)C(=O)[C@H](C(C)C)N(C)C(=O)[C@H](C(C)C)NC(=O)[C@@H]2CCCN2C(=O)[C@H](CCc2ccc(C(F)(F)F)c(Cl)c2)NC(=O)CN(C)C(=O)[C@H](CC2CCCCC2)N(C)C(=O)[C@@H]2CCN2C(=O)[C@H](C)N(C)C1=O [Compound 741] ([NMeL]I[NMeA][Aze][NMeCha][Sar][hPhe(3-Cl-4-CF3)]PV[NMeV][NMeD]-Piperidide; lactam N-11) | < 6.30 | 7.07
11 | CC[C@H](C)[C@@H]1NC(=O)[C@H](CC(C)C)N(C)C(=O)C[C@@H](C(=O)N(C)C)N(C)C(=O)[C@H](C2CCCC2)N(C)C(=O)C2(CCCC2)NC(=O)[C@@H]2CC(F)(F)CN2C(=O)[C@H](CCc2ccc(C(F)(F)F)c(F)c2)NC(=O)CN(C)C(=O)[C@H](CC2CCCCC2)N(C)C(=O)[C@@H]2CCN2C(=O)[C@H](C)N(C)C1=O [Compound 1264] ([NMeL]I[NMeA][Aze][NMeCha][Sar][hPhe(3-F,4-CF3)][Pro(4,4-F2)][Ac5c][NMeGly(cPent)][NMeD]-NMe2; lactam N-11) | ≥ 7.70 | 9.27
12 | CC[C@H](C)[C@@H]1NC(=O)[C@H](CC(C)C)N(C)C(=O)C[C@@H](C)NC(=O)[C@H](C(C)C)N(C)C(=O)C2(CCCC2)NC(=O)[C@@H]2CCCN2C(=O)[C@H](CCc2ccc(C(F)(F)F)c(Cl)c2)NC(=O)CN(C)C(=O)[C@H](CC2CCCCC2)N(C)C(=O)[C@@H]2CCN2C(=O)[C@H](CCC(=O)NC)N(C)C1=O [Compound 810] (cyclo([Ac5c][NMeV][d(β3hA)][NMeL]I[NMeE](NHMe)[Aze][NMeCha][Sar][hPhe(3-Cl-4-CF3)]P)) | < 6.30 | 7.31
13 | CC[C@H](C)[C@@H]1NC(=O)[C@H](C)N(C)C(=O)C[C@@H](C(=O)N2CCCCC2)N(C)C(=O)[C@H](C(C)C)N(C)C(=O)C2(CCCC2)NC(=O)[C@@H]2CCCN2C(=O)[C@H](CCc2ccc(C(F)(F)F)c(F)c2)NC(=O)CN(C)C(=O)[C@H](CC2CCCCC2)N(C)C(=O)[C@@H]2CCN2C(=O)[C@H](C)N(C)C1=O [Compound 1024] ([NMeA]I[NMeA][Aze][NMeCha][Sar][hPhe(3-F,4-CF3)]P[Ac5c][NMeV][NMeD]-Piperidide; lactam N-11) | < 6.30 | 8.72
14 | CC[C@H](C)[C@@H]1NC(=O)[C@H](C2CCC2)N(C)C(=O)C[C@@H](C(=O)N2CCCCC2)N(C)C(=O)[C@H](C2CCCC2)N(C)C(=O)C2(CCCC2)NC(=O)[C@@H]2CCCN2C(=O)[C@H](CCc2ccc(C(F)(F)F)c(Cl)c2)NC(=O)CN(C)C(=O)[C@H](CC2CCCCC2)N(C)C(=O)[C@@H]2CCN2C(=O)[C@H](C)N(C)C1=O [Compound 270] ([NMeGly(cBu)]I[NMeA][Aze][NMeCha][Sar][hPhe(3-Cl-4-CF3)]P[Ac5c][NMeGly(cPent)][NMeD]-Piperidide; lactam N-11) | ≥ 7.70 | 9.17
15 | CC[C@H](C)[C@@H]1NC(=O)[C@H](CC(C)C)N(C)C(=O)C[C@@H](C(=O)N2CCOCC2)N(C)C(=O)[C@H]([C@@H](C)CC)N(C)C(=O)C2(CCCC2)NC(=O)[C@@H]2CCCN2C(=O)[C@H](CCc2cc(F)c(C(F)(F)F)c(F)c2)NC(=O)CN(C)C(=O)[C@H](Cc2ccc(C)cc2)N(CC)C(=O)[C@@H]2CCN2C(=O)[C@H](C)N(C)C1=O [Compound 1209] ([NMeL]I[NMeA][Aze][NEtPhe(4-Me)][Sar][hPhe(3,5-F2-4-CF3)]P[Ac5c][NMeI][NMeD]-Morpholide; lactam N-11) | ≥ 7.70 | 9.07

Source: patent publication US20240148821A1, “PHARMACEUTICAL USE OF CYCLIC PEPTIDE COMPOUND” (CHUGAI SEIYAKU KABUSHIKI KAISHA, priority 2021, published 2024)
